{"source": "paper PMC8591608", "about": "“DNDI-6148: A Novel Benzoxaborole Preclinical Candidate for the Treatment of Visceral Leishmaniasis” (Journal of Medicinal Chemistry, 2021)", "key": {"[1]": {"system": "wild-type L. donovani promastigotes", "test": "Drug sensitivity, wild-type L. donovani promastigotes", "format": "cell-based", "conditions": "Leishmania donovani, Figure 2D", "procedure": "(§1) The clonal L. donovani cell line LdBOB (derived from MHOM/SD/62/1S-CL2D) was grown as promastigotes at 28 °C, as described previously. Bloodstream form T. brucei MiTat 1.2 clone 221a and its derived subline, 2T1, were cultured at 37 °C in the presence of 5% CO2 in HMI9-T medium, as described previously. T. brucei cell lines overexpressing CPSF3 and overexpressing a mutated version of CPSF3 (Asn232His) were generated as part of a previous study and cultured as described.[19]\n(§2) Drug sensitivity assays with wild-type and transgenic T. brucei and L. donovani cell lines were carried out as previously described.[31],[32]"}, "L. infantum": {"system": "L. infantum", "test": "L. infantum mouse model of VL", "format": "in vivo"}, "[2]": {"test": "Hepatocyte stability, dog", "format": "in vitro ADME", "conditions": "Beagle, cryopreserved dog hepatocytes", "procedure": "Tests were performed by WuXi AppTec, China. Following a viability check of cryopreserved hepatocytes from Sprague-Dawley rat, Beagle dog, or human, test compounds (at 1 μM) or positive controls 7-ethoxycoumarin and 7-hydroxycoumarin (at 3 μM) were incubated at 37 °C, 5% CO2 with hepatocytes in Williams’ Medium E. Following incubation of 15, 30, 60, 90, 120, 180, and 240 min, reactions were stopped by the addition of acetonitrile, the samples were centrifuged, and LC-MS/MS analysis was conducted using tolbutamide as an internal standard."}, "[3]": {"system": "trypanosomes overexpressing the wild-type version of CPSF3", "test": "Drug sensitivity, T. brucei overexpressing CPSF3", "format": "cell-based", "procedure": "as §1, §2"}, "CYP2C19": {"target": "CYP2C19 (Homo sapiens, UniProt P33261)", "sequence (P33261 whole entry)": "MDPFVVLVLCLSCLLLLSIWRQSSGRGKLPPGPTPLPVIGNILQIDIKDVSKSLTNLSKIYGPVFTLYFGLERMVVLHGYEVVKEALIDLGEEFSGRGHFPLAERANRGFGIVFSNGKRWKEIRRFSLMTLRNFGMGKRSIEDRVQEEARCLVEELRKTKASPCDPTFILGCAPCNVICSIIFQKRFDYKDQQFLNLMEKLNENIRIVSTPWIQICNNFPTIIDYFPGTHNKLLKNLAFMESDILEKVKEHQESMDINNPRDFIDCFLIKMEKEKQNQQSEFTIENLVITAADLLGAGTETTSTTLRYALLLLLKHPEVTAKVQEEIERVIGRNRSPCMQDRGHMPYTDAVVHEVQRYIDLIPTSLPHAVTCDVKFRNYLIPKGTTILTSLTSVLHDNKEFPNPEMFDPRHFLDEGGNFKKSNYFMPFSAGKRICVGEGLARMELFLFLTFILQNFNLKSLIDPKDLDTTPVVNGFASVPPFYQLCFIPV", "test": "CYP inhibition, CYP2C19", "format": "in vitro ADME", "conditions": "human liver microsomes", "procedure": "(§3) The study was conducted by WuXi AppTec, Co., China, using the time-dependent (TDI) method. […] Following incubation with substrates (phenacetin for 1A2, diclofenac for 2C9, S-(+) mephenytoin for 2C19, dextromethorphan for 2D6, and midazolam or testosterone for 3A4), reactions were stopped by adding ice-cold acetonitrile, the samples were analyzed for the formation of metabolites by LC-MS/MS, and the percentage of inhibition was determined."}, "CYP2D6": {"target": "CYP2D6 (Homo sapiens, UniProt P10635)", "sequence (P10635 whole entry)": "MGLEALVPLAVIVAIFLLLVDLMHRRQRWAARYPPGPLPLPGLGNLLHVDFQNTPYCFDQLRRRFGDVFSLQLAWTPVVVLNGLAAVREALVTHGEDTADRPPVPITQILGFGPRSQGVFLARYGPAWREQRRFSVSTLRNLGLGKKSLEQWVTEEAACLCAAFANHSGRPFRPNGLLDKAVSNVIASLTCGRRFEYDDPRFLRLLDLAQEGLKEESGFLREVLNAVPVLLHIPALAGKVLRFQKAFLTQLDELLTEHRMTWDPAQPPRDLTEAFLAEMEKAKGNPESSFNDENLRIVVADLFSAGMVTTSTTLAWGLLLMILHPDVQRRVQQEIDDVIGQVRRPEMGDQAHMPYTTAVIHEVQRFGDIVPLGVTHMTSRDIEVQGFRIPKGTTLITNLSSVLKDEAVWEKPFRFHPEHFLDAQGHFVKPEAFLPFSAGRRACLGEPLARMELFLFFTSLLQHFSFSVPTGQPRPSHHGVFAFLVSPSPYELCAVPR", "test": "CYP inhibition, CYP2D6", "format": "in vitro ADME", "conditions": "human liver microsomes", "procedure": "as §3"}, "[4]": {"test": "In vivo pharmacokinetics in dog", "set-up": "species or system male Beagle dogs", "conditions": "for MRT inf: read-out: MRT0-inf; for MRT last: read-out: MRT0-last", "procedure": "DNDI-6148 was administrated intravenously at 1 mg/kg and orally at 5 mg/kg to male Beagle dogs. The formulation for the i.v. leg was 2% ethanol, 1.0 mol equiv NaOH, dextrose (5% solution) filtered, and adjusted to pH 7, and for the p.o. leg, the formulation was 2% ethanol, 1.0 mol equiv NaOH, and dextrose (5% solution). The K2-EDTA anticoagulant was added to blood samples collected at predose, 0.033 (i.v. only), 0.083 (p.o. only), 0.25, 0.5, 1, 3, 6, 9, and 24 h, and were stabilized with phosphoric acid (1% final) before analysis by LC-MS/MS. PK parameters were calculated using WinNonlin software (version 6.3)."}, "[5]": {"test": "Plasma-protein binding, dog", "format": "in vitro ADME", "conditions": "Beagle, pH 7.4", "procedure": "Tests were conducted by WuXi AppTec, Co., China, using the equilibrium dialysis method and a 96-well plate format. The test compound (at 2 μM, in triplicate) in solution in plasma (Balb/c mouse, golden (Syrian) hamster, Sprague-Dawley rat, Beagle dog or human) was dialyzed against 100 mM phosphate-buffered saline (pH 7.4) on a rotating plate incubated for 6 h at 37 °C. Following the precipitation of protein with acetonitrile or acetonitrile/methanol containing both 1% phosphoric acid, the amount of compound present in each compartment was quantified by LC-MS/MS."}, "CYP2C9": {"target": "CYP2C9 (Homo sapiens, UniProt P11712)", "sequence (P11712 whole entry)": "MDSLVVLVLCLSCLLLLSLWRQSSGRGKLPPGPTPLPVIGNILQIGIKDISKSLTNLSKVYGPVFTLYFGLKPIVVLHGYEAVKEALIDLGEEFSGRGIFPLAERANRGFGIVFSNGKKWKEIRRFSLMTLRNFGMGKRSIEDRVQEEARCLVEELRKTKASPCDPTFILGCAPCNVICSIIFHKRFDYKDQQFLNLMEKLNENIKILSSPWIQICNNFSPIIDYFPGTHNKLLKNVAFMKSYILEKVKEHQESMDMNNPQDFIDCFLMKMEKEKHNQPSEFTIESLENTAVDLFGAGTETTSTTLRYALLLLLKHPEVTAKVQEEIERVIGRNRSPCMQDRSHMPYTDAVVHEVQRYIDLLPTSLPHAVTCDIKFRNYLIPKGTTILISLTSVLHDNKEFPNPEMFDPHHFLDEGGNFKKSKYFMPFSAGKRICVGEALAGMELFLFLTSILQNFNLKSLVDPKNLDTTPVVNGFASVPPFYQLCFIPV", "test": "CYP inhibition, CYP2C9", "format": "in vitro ADME", "conditions": "human liver microsomes", "procedure": "as §3"}, "[6]": {"system": "Salmonella typhimurium strains (TA98 and TA100)", "test": "Mini-Ames reverse mutation screen", "format": "cell-based", "conditions": "TA98 and TA100, with and without metabolic activation, 1.5 to 1000 μg/well", "procedure": "Mini-Ames reverse mutation screens were conducted by WuXi AppTec, Co., China. Two Salmonella typhimurium strains (TA98 and TA100) were employed, both in the presence and absence of metabolic activation (induced rat liver S9). Test compounds were assessed at doses of 1.5, 4, 10, 25, 64, 160, 400, and 1000 μg per well, 2-aminoanthracene, 2-nitrofluorene, and sodium azide were used as positive controls, and the negative control was DMSO."}, "CYP3A4": {"target": "CYP3A4 (Homo sapiens, UniProt P08684)", "sequence (P08684 2-503 limits assumed)": "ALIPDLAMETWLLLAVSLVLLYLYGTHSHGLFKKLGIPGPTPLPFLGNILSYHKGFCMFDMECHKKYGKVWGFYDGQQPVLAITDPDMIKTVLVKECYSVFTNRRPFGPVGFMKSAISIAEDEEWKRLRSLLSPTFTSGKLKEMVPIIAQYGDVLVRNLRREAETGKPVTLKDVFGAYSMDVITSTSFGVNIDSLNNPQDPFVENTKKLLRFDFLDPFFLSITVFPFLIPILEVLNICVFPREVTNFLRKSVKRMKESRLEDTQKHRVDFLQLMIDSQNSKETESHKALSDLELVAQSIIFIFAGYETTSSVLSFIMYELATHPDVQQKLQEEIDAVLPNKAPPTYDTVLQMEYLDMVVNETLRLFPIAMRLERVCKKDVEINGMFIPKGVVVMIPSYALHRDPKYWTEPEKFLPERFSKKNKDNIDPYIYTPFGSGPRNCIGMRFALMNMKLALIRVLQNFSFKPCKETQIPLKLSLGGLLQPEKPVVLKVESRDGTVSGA", "test": "CYP inhibition, CYP3A4", "format": "in vitro ADME", "conditions": "human liver microsomes", "procedure": "as §3"}, "[7]": {"conditions": "male, Beagle, plasma, IV 1.0 mg/kg, mean"}, "[8]": {"conditions": "male, Beagle, plasma, PO 5 mg/kg, mean"}, "[9]": {"conditions": "male, Beagle, plasma, iv, i.v. 1 mg/kg"}}, "note": "Read-outs that look alike come from different tables or passages of the source.", "data": [{"smiles": "Cc1c(C(=O)Nc2ccc3c(c2)B(O)OC3)nnn1-c1ccccn1", "note": "[Compound 23, N-(1-Hydroxy-1,3-dihydrobenzo[c][1,2]oxaborol-6-yl)-5-methyl-1-(pyridin-2-yl)-1H-1,2,3-triazole-4-carboxamide]", "values": [{"measurement": "EC50", "setting": "[1]", "result": "0.411 ± 0.012", "unit": "µM"}, {"measurement": "reduction in liver parasite burden following 5 days of p.o. dosing BID, L. infantum", "setting": "L. infantum; 25 mg/kg BID", "result": 96.1, "unit": "%"}, {"measurement": "reduction in liver parasite burden following 5 days of p.o. dosing BID, L. infantum", "setting": "L. infantum; 50 mg/kg BID", "result": 98.6, "unit": "%"}, {"measurement": "hepatocyte CLint at 1 μM", "setting": "[2]", "result": 2.4, "unit": "µL/min/1e6 cells"}, {"measurement": "EC50", "setting": "[3]; Trypanosoma brucei", "result": "0.172 ± 0.003", "unit": "µM"}, {"measurement": "fold less sensitive compared to wild-type", "setting": "[3]; trypanosomes overexpressing wild-type CPSF3", "result": 2.9, "unit": "fold"}, {"measurement": "IC50", "setting": "CYP2C19", "result": "> 50", "unit": "µM"}, {"measurement": "IC50", "setting": "CYP2D6", "result": "> 50", "unit": "µM"}, {"measurement": "AUC0-inf/AUC0-last", "setting": "[4]; IV 1.0 mg/kg, mean", "result": 102, "unit": "%"}, {"measurement": "Tlast", "setting": "[4]; IV 1.0 mg/kg, mean", "result": 9.00, "unit": "h"}, {"measurement": "AUC0-inf/AUC0-last", "setting": "[4]; PO 5 mg/kg, mean", "result": 103, "unit": "%"}, {"measurement": "Tlast", "setting": "[4]; PO 5 mg/kg, mean", "result": 9.00, "unit": "h"}, {"measurement": "concentration at 0.033 h", "setting": "[4]; male, Beagle, plasma, IV 1.0 mg/kg, 0.033 h, mean", "result": 1.56, "unit": "µg/mL"}, {"measurement": "concentration at 5 min", "setting": "[4]; [7]", "result": 1.12, "unit": "µg/mL"}, {"measurement": "concentration at 0.25 h", "setting": "[4]; [7]", "result": 0.644, "unit": "µg/mL"}, {"measurement": "concentration at 0.5 h", "setting": "[4]; [7]", "result": 0.534, "unit": "µg/mL"}, {"measurement": "concentration at 1 h", "setting": "[4]; [7]", "result": 0.373, "unit": "µg/mL"}, {"measurement": "concentration at 3 h", "setting": "[4]; [7]", "result": 0.0977, "unit": "µg/mL"}, {"measurement": "concentration at 6 h", "setting": "[4]; [7]", "result": 0.023, "unit": "µg/mL"}, {"measurement": "concentration at 9 h", "setting": "[4]; [7]", "result": 0.0088, "unit": "µg/mL"}, {"measurement": "concentration at 24 h", "setting": "[4]; [7]", "result": 0.0009, "unit": "µg/mL"}, {"measurement": "AUC(0-inf)", "setting": "[4]; [7]", "result": 1.27, "unit": "µg·h/mL"}, {"measurement": "AUC(0-t)", "setting": "[4]; [7]", "result": 1.25, "unit": "µg·h/mL"}, {"measurement": "C0", "setting": "[4]; [7]", "result": 1.93, "unit": "µg/mL"}, {"measurement": "half-life", "setting": "[4]; [7]", "result": 1.49, "unit": "h"}, {"measurement": "MRT inf", "setting": "[4]; [7]", "result": 1.66, "unit": "h"}, {"measurement": "MRT last", "setting": "[4]; [7]", "result": 1.51, "unit": "h"}, {"measurement": "Vd", "setting": "[4]; male, Beagle, plasma, IV 1.0 mg/kg, mean, read-out: Vdss", "result": 1.31, "unit": "L/kg"}, {"measurement": "concentration at 5 min", "setting": "[4]; [8]", "result": 0.266, "unit": "µg/mL"}, {"measurement": "concentration at 0.25 h", "setting": "[4]; [8]", "result": 1.13, "unit": "µg/mL"}, {"measurement": "concentration at 0.5 h", "setting": "[4]; [8]", "result": 0.881, "unit": "µg/mL"}, {"measurement": "concentration at 1 h", "setting": "[4]; [8]", "result": 0.814, "unit": "µg/mL"}, {"measurement": "concentration at 3 h", "setting": "[4]; [8]", "result": 0.357, "unit": "µg/mL"}, {"measurement": "concentration at 6 h", "setting": "[4]; [8]", "result": 0.0548, "unit": "µg/mL"}, {"measurement": "concentration at 9 h", "setting": "[4]; [8]", "result": 0.0255, "unit": "µg/mL"}, {"measurement": "concentration at 24 h", "setting": "[4]; [8]", "result": 0.0009, "unit": "µg/mL"}, {"measurement": "AUC(0-inf)", "setting": "[4]; [8]", "result": 2.53, "unit": "µg·h/mL"}, {"measurement": "AUC(0-t)", "setting": "[4]; [8]", "result": 2.47, "unit": "µg·h/mL"}, {"measurement": "Cmax", "setting": "[4]; [8]", "result": 1.23, "unit": "µg/mL"}, {"measurement": "Tmax", "setting": "[4]; [8]", "result": 0.63, "unit": "h"}, {"measurement": "half-life", "setting": "[4]; [8]", "result": 1.46, "unit": "h"}, {"measurement": "MRT inf", "setting": "[4]; [8]", "result": 2.42, "unit": "h"}, {"measurement": "MRT last", "setting": "[4]; [8]", "result": 2.19, "unit": "h"}, {"measurement": "Vd at 24 h", "setting": "[4]; [9]", "result": 1.3, "unit": "L/kg"}, {"measurement": "clearance", "setting": "[4]; [9]", "result": 0.822, "unit": "L/h/kg"}, {"measurement": "half-life at 24 h", "setting": "[4]; [9]", "result": 1.5, "unit": "h"}, {"measurement": "bioavailability at 24 h", "setting": "[4]; male, Beagle, plasma, po, p.o. 5 mg/kg", "result": 39, "unit": "%"}, {"measurement": "fraction unbound at 6 h, 2 µM", "setting": "[5]", "result": 0.13}, {"measurement": "IC50", "setting": "CYP2C9", "result": "> 50", "unit": "µM"}, {"measurement": "Ames assay result", "setting": "[6]", "result": "negative"}, {"measurement": "IC50", "setting": "CYP3A4", "result": "> 50", "unit": "µM"}]}]}
